Results reported in patent US20230391748A1, “BICYCLIC INHIBITORS OF IRAK” (priority 2022, published 2023).
pIC50: −log10 of the molar value.

Legend:
IRAK4 = IRAK4 (Homo sapiens (Human), UniProt Q9NWZ3); assay: IRAK4 ADP-Glo Assay; assay type: biochemical; conditions: MBP substrate
Summary of the method: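 Human IRAK4 kinase reaction with MBP substrate plus ATP in Tris-HCl/MgCl2/BSA/DTT buffer, pH 7.4, run 60 min at room temperature or 30 min at 30 °C. ADP formed was measured by ADP-Glo luminescence after ATP depletion (40 min) and detection reagent (30 min).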

IL23p19 in THP-1 Cells = assay: LPS Induced IL23p19 in THP-1 Cells (with IFNγ Primed) Assay; assay type: cell-based; conditions: Homo sapiens, THP-1, 18 h, read-out: IL23 (THP, LPS) (IC50, μM)
Summary of the method: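 THP-1 cells (50K/well) primed with IFNγ (50 ng/mL) about 18 h, then given compound and stimulated with LPS for 18 h at 37 °C. Secreted IL-23p19 measured by sandwich ELISA with chemiluminescent read-out, giving EC50. Cell Titer Glo used on the remaining cells for toxicity.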

TNF-α in human PBMCs = assay: R848-induced TNF-α in human PBMCs Assay; assay type: cell-based; conditions: Homo sapiens, PBMC, 4 h, read-out: TNFα (PBMC, R848) (IC50, μM)
Summary of the method: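 Human PBMCs at 200K/well were pretreated with compound, then R848-stimulated for 4 h at 37 °C, 5% CO2. Supernatant TNF-α quantified by chemiluminescent ELISA; EC50 from curve fitting.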

[1] = test system: TNF-α in Human Primary Monocyte-Derived Dendritic Cells; assay: Gardiquimod-Induced TNF-α in Human Primary Monocyte-Derived Dendritic Cells; assay type: cell-based; conditions: Dendritic cell, IFNγ-primed monocyte-derived dendritic cells, 4 μg/ml Gardiquimod, 6 hours, TNF-α ELISA, read-out: TNFα (DC, GARD) (IC50)
Summary of the method: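 Monocytes differentiated 7 days with GM-CSF and IL-4, then primed 24 h with 50 ng/ml IFN-γ. Compound added 1 h before 6 h stimulation with 4 μg/ml Gardiquimod, 0.5% DMSO final. Supernatant TNF-α measured by chemiluminescent ELISA; EC50 from curve fitting.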

Chain of IRAK4 (Q9NWZ3 whole entry): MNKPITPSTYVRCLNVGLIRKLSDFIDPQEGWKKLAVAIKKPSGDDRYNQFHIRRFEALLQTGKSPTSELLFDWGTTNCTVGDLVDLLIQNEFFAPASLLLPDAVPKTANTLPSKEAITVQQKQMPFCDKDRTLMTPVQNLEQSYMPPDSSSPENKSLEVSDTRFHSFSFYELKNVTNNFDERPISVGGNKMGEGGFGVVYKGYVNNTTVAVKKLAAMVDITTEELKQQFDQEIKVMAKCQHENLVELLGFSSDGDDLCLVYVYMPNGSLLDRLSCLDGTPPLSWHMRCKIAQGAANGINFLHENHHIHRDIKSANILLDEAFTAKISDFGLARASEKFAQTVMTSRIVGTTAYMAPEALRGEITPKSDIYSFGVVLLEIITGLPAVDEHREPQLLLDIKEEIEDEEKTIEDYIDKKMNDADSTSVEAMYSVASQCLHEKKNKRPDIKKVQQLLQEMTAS

Row | Compound | pIC50 (IRAK4) | IC50 (IL23p19 in THP-1 Cells) [µM] | IC50 (TNF-α in human PBMCs) [µM] | pIC50 [1]
1 | CC(C)Oc1cc2c(OC[C@@H]3CC(F)(F)C(=O)N3)ncc(C#CCC3CCOCC3)c2cc1C(N)=O [Compound I-50, (S)-1-((4,4-difluoro-5-oxopyrrolidin-2-yl)methoxy)-7-isopropoxy-4-(3-(tetrahydro-2H-pyran-4-yl)prop-1-yn-1-yl)isoquinoline-6-carboxamide] | 8.32 | 1.62 | 0.115 | 6.64
2 | CC(C)Oc1cc2c(O[C@@H]3CCCNC3)ncc(C#CC3CCOCC3)c2cc1C(N)=O [Compound I-86, (R)-7-isopropoxy-1-(piperidin-3-yloxy)-4-((tetrahydro-2H-pyran-4-yl)ethynyl)isoquinoline-6-carboxamide] | 7.04 | 5.29 | 1.74 | 5.99
3 | CC(C)Oc1cc2c(O[C@@H]3CCCN(C(=O)CC#N)C3)ncc(C#CC3CN(C)C3)c2cc1C(N)=O [Compound I-104, (R)-1-((1-(2-cyanoacetyl)piperidin-3-yl)oxy)-7-isopropoxy-4-((1-methylazetidin-3-yl)ethynyl)isoquinoline-6-carboxamide] | 8.15 | 1.76 | 0.237 | 6.80
4 | CCO[C@H]1CC[C@@H](C#Cc2cnc(OC[C@@H]3CC(F)(F)C(=O)N3)c3cc(OC(C)C)c(C(N)=O)cc23)CC1 [Compound I-59, 1-(((S)-4,4-difluoro-5-oxopyrrolidin-2-yl)methoxy)-4-((cis-4-ethoxycyclohexyl)ethynyl)-7-isopropoxyisoquinoline-6-carboxamide] | 8.41 | 0.0466 | 0.0472 | 7.49
5 | CC(C)Oc1cc2c(OC[C@@H]3CCC(=O)N3)ncc(C#CC3(O)CCOCC3)c2cc1C(N)=O [Compound I-10, (S)-4-((4-hydroxytetrahydro-2H-pyran-4-yl)ethynyl)-7-isopropoxy-1-((5-oxopyrrolidin-2-yl)methoxy)isoquinoline-6-carboxamide] | 7.94 | 3.28 | 0.873 | 5.53
6 | CNC(=O)N1CC(C#Cc2cnc(OC[C@@H]3CCC(=O)N3)c3cc(OC(C)C)c(C(N)=O)cc23)C1 [Compound I-29, (S)-7-isopropoxy-4-((1-(methylcarbamoyl)azetidin-3-yl)ethynyl)-1-((5-oxopyrrolidin-2-yl)methoxy)isoquinoline-6-carboxamide] | 8.26 | 4.25 | 0.686 | 5.76
7 | CC(C)Oc1cc2c(OC[C@@H]3CCC(=O)N3)ncc(-c3cnn(C4CCC4)c3)c2cc1C(N)=O [Compound I-33, (S)-4-(1-cyclobutyl-1H-pyrazol-4-yl)-7-isopropoxy-1-((5-oxopyrrolidin-2-yl)methoxy)isoquinoline-6-carboxamide] | 8.12 | 0.2 | 0.272 | 6.66
8 | CCO[C@H]1CC[C@@H](C#Cc2cnc(OC[C@@H]3CCC(=O)N3)c3cc(OC(C)C)c(C(N)=O)cc23)CC1 [Compound I-21, 4-((cis-4-ethoxycyclohexyl)ethynyl)-7-isopropoxy-1-(((S)-5-oxopyrrolidin-2-yl)methoxy)isoquinoline-6-carboxamide] | 8.25 | 0.194 | 0.104 | 6.99
9 | CC(C)Oc1cc2c(O[C@@H]3CCCNC3)ncc(-c3cnn(CC4CCOCC4)c3)c2cc1C(N)=O [Compound I-112, (R)-7-isopropoxy-1-(piperidin-3-yloxy)-4-(1-((tetrahydro-2H-pyran-4-yl)methyl)-1H-pyrazol-4-yl)isoquinoline-6-carboxamide] | 6.55 | 13.6 | 3.95 | 5.04
10 | CC(C)Oc1cc2c(OC[C@@H]3CC(F)(F)C(=O)N3)ncc(C#CC3CCN(C(=O)OC(C)(C)C)CC3)c2cc1C(N)=O [Compound I-54, tert-butyl (S)-4-((6-carbamoyl-1-((4,4-difluoro-5-oxopyrrolidin-2-yl)methoxy)-7-isopropoxyisoquinolin-4-yl)ethynyl)piperidine-1-carboxylate] | 6.95 | 2.97 | 2.75 | 5.77
11 | CC(C)Oc1cc2c(OC[C@@H]3CCC(=O)N3)ncc(C#CC(C)(C)CO)c2cc1C(N)=O [Compound I-5, (S)-4-(4-hydroxy-3,3-dimethylbut-1-yn-1-yl)-7-isopropoxy-1-((5-oxopyrrolidin-2-yl)methoxy)isoquinoline-6-carboxamide] | 6.92 | 6.51 | 0.433 | 6.31
12 | CC(C)Oc1cc2c(OC[C@@H]3CCC(=O)N3)ncc(C#CC3CNC3)c2cc1C(N)=O [Compound I-25, (S)-4-(azetidin-3-ylethynyl)-7-isopropoxy-1-((5-oxopyrrolidin-2-yl)methoxy)isoquinoline-6-carboxamide] | 8.48 | 12.7 | 2.36 | 5.87
13 | CC(C)Oc1cc2c(O[C@@H]3CCCNC3)ncc(C#CCC3CCOCC3)c2cc1C(N)=O [Compound I-87, (R)-7-isopropoxy-1-(piperidin-3-yloxy)-4-(3-(tetrahydro-2H-pyran-4-yl)prop-1-yn-1-yl)isoquinoline-6-carboxamide] | 7.28 | 5.02 | 1.97 | 6.11
14 | CCO[C@H]1C[C@@H](n2cc(-c3cnc(OC[C@@H]4CCC(=O)N4)c4cc(OC(C)C)c(C(N)=O)cc34)cn2)C1 [Compound I-42, 4-(1-(cis-3-ethoxycyclobutyl)-1H-pyrazol-4-yl)-7-isopropoxy-1-(((S)-5-oxopyrrolidin-2-yl)methoxy)isoquinoline-6-carboxamide] | 8.19 | 0.72 | 0.241 | 6.87
15 | CC(C)Oc1cc2c(OC[C@@H]3CCC(=O)N3)ncc(-c3cnn(C4CCNCC4)c3)c2cc1C(N)=O [Compound I-45, (S)-7-isopropoxy-1-((5-oxopyrrolidin-2-yl)methoxy)-4-(1-(piperidin-4-yl)-1H-pyrazol-4-yl)isoquinoline-6-carboxamide] | 7.73 | 10.9 | 10 | 5.87
16 | CC(C)Oc1cc2c(O[C@@H]3CCCN(C(=O)CC#N)C3)ncc(C#CC3CCN(C(=O)OC(C)(C)C)CC3)c2cc1C(N)=O [Compound I-95, tert-butyl (R)-4-((6-carbamoyl-1-((1-(2-cyanoacetyl)piperidin-3-yl)oxy)-7-isopropoxyisoquinolin-4-yl)ethynyl)piperidine-1-carboxylate] | 7.16 | 1.56 | 2.1 | 6.07
17 | CCO[C@H]1CC[C@H](C#Cc2cnc(OC[C@@H]3CC(F)(F)C(=O)N3)c3cc(OC(C)C)c(C(N)=O)cc23)CC1 [Compound I-58, 1-(((S)-4,4-difluoro-5-oxopyrrolidin-2-yl)methoxy)-4-(((1r,4S)-4-ethoxycyclohexyl)ethynyl)-7-isopropoxyisoquinoline-6-carboxamide] | 6.14 | 2960 | 1.56 | 7.65
18 | COC1(OC)CC(C#Cc2cnc(OC[C@@H]3CCC(=O)N3)c3cc(OC(C)C)c(C(N)=O)cc23)C1 [Compound I-30, (S)-4-((3,3-dimethoxycyclobutyl)ethynyl)-7-isopropoxy-1-((5-oxopyrrolidin-2-yl)methoxy)isoquinoline-6-carboxamide] | 8.19 | 0.142 | 0.0947 | 7.15
19 | CCO[C@H]1CC[C@H](C#Cc2cnc(OC[C@@H]3CCC(=O)N3)c3cc(OC(C)C)c(C(N)=O)cc23)CC1 [Compound I-20, 4-(((1r,4S)-4-ethoxycyclohexyl)ethynyl)-7-isopropoxy-1-(((S)-5-oxopyrrolidin-2-yl)methoxy)isoquinoline-6-carboxamide] | 8.15 | 0.11 | 0.0688 | 7.20
20 | CC(C)Oc1cc2c(OC[C@@H]3CC(F)(F)C(=O)N3)ncc(-c3cnn(C4CC4)c3)c2cc1C(N)=O [Compound I-67, (S)-4-(1-cyclopropyl-1H-pyrazol-4-yl)-1-((4,4-difluoro-5-oxopyrrolidin-2-yl)methoxy)-7isopropoxyisoquinoline-6-carboxamide] | 8.20 | 0.608 | 0.0472 | 6.23
21 | CC(C)Oc1cc2c(OC[C@@H]3CCC(=O)N3)ncc(C#C[C@H]3C[C@@H](N(C)C)C3)c2cc1C(N)=O [Compound I-31, 4-((cis-3-(dimethylamino)cyclobutyl)ethynyl)-7-isopropoxy-1-(((S)-5-oxopyrrolidin-2-yl)methoxy)isoquinoline-6-carboxamide] | 8.46 | 0.136 | 0.0637 | 7.05
22 | COC(=O)N1CC(C#Cc2cnc(OC[C@@H]3CCC(=O)N3)c3cc(OC(C)C)c(C(N)=O)cc23)C1 [Compound I-28, methyl (S)-3-((6-carbamoyl-7-isopropoxy-1-((5-oxopyrrolidin-2-yl)methoxy)isoquinolin-4-yl)ethynyl)azetidine-1-carboxylate] | 8.20 | 0.14 | 0.0331 | 6.96
